Measurements as given in patent US20090054515A1, “SKIN-WHITENING COSMETIC” (POLA CHEMICAL INDUSTRIES INC., priority 2006, published 2009).

What was measured:
[1] = test system: human normal melanocytes; experiment: Melanin formation inhibition test (14C-thiouracil uptake); format: cell-based; conditions: for Melanin level (%): three days culture, % of control
Procedure: The melanin formation inhibitory action of Compound (1) was evaluated using thiouracil (in this test, thiouracil labeled with ^14C was used), which is specifically taken into cells in a melanin synthesis process. A complete medium for culturing melanocytes (from Kurabo Industries Ltd.) was added to 15 wells of a 24-well plate in an amount of 2 ml per well, and human normal melanocytes (from Kurabo Industries Ltd.) were inoculated into each well at a concentration of 1.5×10^4 cells/cm^2. The cells were cultured at 37° C. for 24 hours under 5% carbon dioxide atmosphere. Thereafter, in all the wells, the medium was exchanged under the following conditions. That is, a fresh complete medium for culturing melanocytes was added to three wells (control), complete mediums for culturing melanocytes containing Compound (1) at concentrations of 1.0×10^−3 mM, 2.0×10^−3 mM, and 4.0×10^−3 mM were added to three wells each (total: nine wells), and a complete medium for culturing melanocytes containing 0.1 mM phenylthiourea, which is known as a tyrosinase inhibitor, was added to other three wells. In addition, to those 15 wells was added ^14C-thiouracil (thiouracil labeled with ^14C) was added at 0.25×10^−6 Ci (curie). The cells were cultured under the same conditions as above for further three days. After completion of the culture, the culture solution was removed from the wells, and the cells were washed with PBS (phosphate buffered saline) and detached with a medium containing trypsin and EDTA from the bottom of each well to produce cell suspensions, followed by centrifugation to collect the cells. The numbers of the cells were counted using a blood cell counting chamber. Thereafter, the ^14C-thiouracil level in the cells collected from each well was determined using a liquid scintillation counter. The percentage of a radiation dose of the cells cultured in each medium containing a test substance based on a radiation dose of the cells collected from the control wells was calculated to determine a melanin level (%). That is, it is considered that the smaller the radiation dose taken in the cells is, the smaller the melanin level is, resulting in a large melanin inhibition titer.

[2] = target: T1, tyrosinase extracted from normal human melanocytes (Homo sapiens, UniProt P14679); experiment: Normal human melanocytes tyrosinase activity inhibition test (dopa-oxidizing activity); format: biochemical; conditions: for Dopa-oxidizing activity: control defined as 100%, 10 minutes at 37° C.; for action on the activity of tyrosinase: 1 to 100 μM
T1 construct: to thereby produce a protein solution, which was used as a crude tyrosinase protein solution; host or cells: human normal melanocytes; extract made with a Subcellular Proteome Extraction Kit (Calbiochem)
T1 sequence (P14679 19-529): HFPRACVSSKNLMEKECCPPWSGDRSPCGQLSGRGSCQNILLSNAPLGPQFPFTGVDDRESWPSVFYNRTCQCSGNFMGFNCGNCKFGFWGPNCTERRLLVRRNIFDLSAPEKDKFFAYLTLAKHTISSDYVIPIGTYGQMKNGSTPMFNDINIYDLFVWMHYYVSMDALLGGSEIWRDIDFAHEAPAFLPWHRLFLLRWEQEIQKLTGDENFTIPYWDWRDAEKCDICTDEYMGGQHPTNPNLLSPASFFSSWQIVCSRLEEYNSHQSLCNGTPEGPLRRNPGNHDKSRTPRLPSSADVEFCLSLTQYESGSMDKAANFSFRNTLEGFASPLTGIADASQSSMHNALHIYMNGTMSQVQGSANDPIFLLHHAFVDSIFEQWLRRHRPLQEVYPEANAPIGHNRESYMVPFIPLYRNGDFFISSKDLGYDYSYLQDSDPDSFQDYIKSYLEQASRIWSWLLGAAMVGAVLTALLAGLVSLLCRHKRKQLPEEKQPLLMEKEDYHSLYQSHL
Procedure: Human normal melanocytes (from Kurabo Industries Ltd.), cultured in a medium for culturing melanocytes (Medium 254, from Kurabo Industries Ltd.), were collected using a cell scraper, and extraction was performed for the cells using PreteoExtract™ Subcellular Proteome Extraction Kit (Calbiochem), to thereby produce a protein solution, which was used as a crude tyrosinase protein solution. The dopa-oxidizing activity of the tyrosinase protein solution was measured to evaluate the tyrosinase activity-inhibiting action of Compound (1).
A 0.1% dopa solution, serving as a substrate, was prepared by dissolving L-β-(3,4-dihydroxyphenyl)alanine (L-DOPA) in 10 mM sodium phosphate buffer (pH 6.8) at a concentration of 0.1 (w/v) %. A crude tyrosinase protein solution, prepared to 1 to 5 μg/80 μL, was fed into a 96-well plate in an amount of 80 μL per well, and solutions of 10 μM, 100 μM, and 1,000 μM Compound (1) in DMSO were separately added to three wells each in an amount of 20 μL per well. Meanwhile, as positive controls, solutions of 10 μM, 100 μM, and 1,000 μM phenylthiourea, known as a tyrosinase activity inhibitor, in DMSO were separately added in the same way as above to different three wells each in an amount of 20 μL per well. In addition, as a control, DMSO was added to another different three wells each in an amount of 20 μL per well. Immediately after 100 μL each of the 0.1% dopa solution was added to the wells each containing the above-described test solution, absorbances at 450 nm were measured using a plate reader and were defined as 0-minute values. The 96-well plate was incubated at 37° C. for 10 minutes in the plate reader, and the absorbances at 450 nm were measured again and defined as 10-minute values. A value calculated by subtracting the 0-minute value from the 10-minute value of each well was defined as a 0→10 minute absorbance change value, and the average of 0→10 minute absorbance change value of control was defined as 100%, followed by measurement of dopa-oxidizing activities in the cases of treatments with various concentrations of test substances.

[3] = test system: Trp-1; experiment: Expression of Trp-1 by Western blotting; format: cell-based; conditions: 5 μM, 72-hour culture, human normal melanocytes
Procedure: (§1) A cell suspension of human normal melanocytes (from Kurabo Industries Ltd.) in a medium for culturing melanocytes (Medium 254, from Kurabo Industries Ltd.) was prepared at 7×10^4 cells/mL and inoculated into φ10-cm culture petri dishes in an amount of 10 mL per dish, and the cells were cultured in a CO2 incubator (37° C., 5% CO2). The next day, the medium was removed, and a medium for culturing melanocytes containing 2 μM or 5 μM Compound (1) or a medium for culturing melanocytes (control) was added in an amount of 10 mL per dish, followed by culture in a CO2 incubator for 72 hours. After 72-hour culture, the medium was removed, and the cells were washed with phosphate buffered saline (PBS) and collected using a cell scraper. A protein extraction solution (0.1% NP-40, 0.01% SDS, 10 mM sodium phosphate buffer (pH 6.8), protease inhibitor) was added to the cell pellets to suspend the cells, and the suspension was shaken at 4° C. for 1 hour. The resultant was centrifuged at 4° C. and 15,000 rpm for 10 minutes, and the supernatant was collected and used as a crude protein extract. […]
(§2) The membrane was washed with TPBS, and proteins were detected using an ECL Plus western blotting detection system. […]

[4] = test system: tyrosinase; experiment: Expression of tyrosinase by Western blotting; format: cell-based; conditions: 5 μM, 72-hour culture, human normal melanocytes
Procedure: as §1, §2

[5] = test system: Trp-2; experiment: Expression of Trp-2 by Western blotting; format: cell-based; conditions: 5 μM, 72-hour culture, human normal melanocytes
Procedure: as §1, §2

Question: Which “melanin formation inhibitory action” value ([1]; 1.0-4.0 × 10^−3 mM) does the source give for `CC(C)(C)c1cc(C(=O)c2cccs2)cc(C(C)(C)C)c1O` [Compound (1), 2,6-di-tert-butyl-4-(2′-thenoyl)phenol] here?
Answer: Its value is “concentration-dependent melanin formation inhibitory action”.

Question: And the “Melanin level (%)” value ([1]; 1.0 × 10^−3 mM in medium)?
Answer: The value was 48.5 ± 2.3%.

Question: And the “Melanin level (%)” value ([1]; 2.0 × 10^−3 mM in medium)?
Answer: Its value is 27.9 ± 0.8%.

Question: And the “Melanin level (%)” value ([1]; 4.0 × 10^−3 mM in medium)?
Answer: Its value is 17.0 ± 0.8%.

Question: And the “melanin formation inhibition titer relative to phenylthiourea (positive control)” value ([1]; Compound (1) 4.0×10^−3 mM versus phenylthiourea 0.1 mM)?
Answer: The value was at least 20 times.

Question: And the “inhibition of melanin formation” value ([1]; cultured cell system of Test Example 1, concentration 25-fold lower than 100 μM)?
Answer: Its value is at least 80%.

Question: What about the Dopa-oxidizing activity ([2]; 1 μM added substance) of the same compound?
Answer: Its Dopa-oxidizing activity is 103.55 ± 1.34%.

Question: What about the Dopa-oxidizing activity ([2]; 10 μM added substance) of the same compound?
Answer: The Dopa-oxidizing activity was 102.52 ± 3.68%.

Question: And the Dopa-oxidizing activity ([2]; 100 μM added substance)?
Answer: Its Dopa-oxidizing activity is 102.52 ± 2.19%.

Question: What about the “action on the activity of tyrosinase” value [2] of the same compound?
Answer: The value was “did not inhibit the activity of tyrosinase”.

Question: And the “expression level of Trp-1” value [3]?
Answer: The value was “did not affect”.

Question: What about the “expression level of tyrosinase” value [4] of the same compound?
Answer: The value was “did not affect”.

Question: And the “expression level of Trp-2” value [5]?
Answer: The value was “did not affect”.

Question: How did the “Melanin level (%)” value ([1]; 0.1 mM in medium) turn out when `NC(=S)Nc1ccccc1` [Phenylthiourea, phenylthiourea, reference compound] was run?
Answer: The value was 20.3 ± 3.8%.

Question: What about the Dopa-oxidizing activity ([2]; 1 μM added substance) of the same compound?
Answer: The Dopa-oxidizing activity was 64.07 ± 1.53%.

Question: What about the Dopa-oxidizing activity ([2]; 10 μM added substance) of the same compound?
Answer: The Dopa-oxidizing activity was 22.52 ± 1.09%.

Question: What about the Dopa-oxidizing activity ([2]; 100 μM added substance) of the same compound?
Answer: Its Dopa-oxidizing activity is 4.73 ± 2.07%.

Question: What about the “action on the activity of tyrosinase” value [2] of the same compound?
Answer: The value was “had an action of inhibiting the activity of tyrosinase”.
